Values after ≈ are worked out from the molar mass of the structure shown.
Experiments:
α-glucosidase = settings: cited from earlier work
[1] = system: bovine serum albumin (BSA); assay: Protein glycation inhibitory assay (BSA–fructose model); format: biochemical
Description: The ability of the plant extracts/compounds to inhibit fructose-induced protein glycation was determined according to a method previously published with minor modifications. […] Briefly, fructose solution (600 µL) was mixed with BSA (600 µL) and 600 µL tested extracts/compounds at different concentrations and then the reaction mixture was incubated in the capped amber vials in the dark at 37 °C for six days.

α-amylase = settings: earlier studies; cited from earlier work
[2] = molecular target: T1, Porcine pancreatic α-amylase (Sus scrofa, UniProt P00690); assay: α-Amylase inhibitory assay (potato starch, DNS); format: biochemical; settings: mean ± SD (n = 3)
T1 construct: purchased Sigma-Aldrich
T1 sequence (P00690 16-511): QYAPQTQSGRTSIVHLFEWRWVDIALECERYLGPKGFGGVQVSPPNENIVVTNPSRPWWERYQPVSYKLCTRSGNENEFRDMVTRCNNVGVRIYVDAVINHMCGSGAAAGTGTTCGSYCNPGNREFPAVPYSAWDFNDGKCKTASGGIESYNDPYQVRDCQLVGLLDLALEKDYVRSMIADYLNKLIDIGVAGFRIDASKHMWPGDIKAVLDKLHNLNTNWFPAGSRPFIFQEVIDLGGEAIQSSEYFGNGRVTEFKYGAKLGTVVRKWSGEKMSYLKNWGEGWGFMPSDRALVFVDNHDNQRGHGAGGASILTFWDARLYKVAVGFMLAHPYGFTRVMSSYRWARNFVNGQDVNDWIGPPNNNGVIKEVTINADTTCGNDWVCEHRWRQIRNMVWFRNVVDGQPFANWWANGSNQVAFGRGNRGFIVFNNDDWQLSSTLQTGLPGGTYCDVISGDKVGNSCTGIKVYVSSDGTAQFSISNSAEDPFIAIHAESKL

[3] = BSA–fructose model, 37 °C, six days, mean ± SD (n = 3)

## Oc1cc(O)c2c(c1)O[C@H](c1ccc(O)c(O)c1)[C@@H](O)C2 [(+)-catechin]
α-glucosidase
  type of α-glucosidase inhibition: mixed-type inhibitors

## N=C(N)NN [AG, aminoguanidine]
[1]; [3]
  IC50 Protein Glycation: 71.09 ± 4.20 ^D µg/mL
[1]; BSA–fructose model, 37 °C, six days, mean ± SD (n = 3), listed as aminoguanidine
  IC50 Protein Glycation: 71.1 µg/mL (≈ 960 µM)

## C[C@H]1O[C@H](O[C@H]2[C@H](O)[C@@H](O)[C@@H](O[C@H]3[C@H](O)[C@@H](O)C(O)O[C@@H]3CO)O[C@@H]2CO)[C@H](O)[C@@H](O)[C@@H]1N[C@H]1C=C(CO)[C@@H](O)[C@H](O)[C@H]1O (stereo partly shown) [AR, acarbose]
α-amylase
  type of α-amylase inhibition: mixed type
α-glucosidase
  type of α-glucosidase inhibition: competitively interacts

## Oc1cc(O)c2c(c1)O[C@H](c1ccc(O)c(O)c1)[C@@H](O)[C@@H]2c1c(O)cc(O)c2c1O[C@H](c1ccc(O)c(O)c1)[C@@H](O)C2 [B3]
α-glucosidase
  type of interaction with α-glucosidase: noncompetitive interaction

## O=C(O)CC(OC(=O)/C=C/c1ccc(O)c(O)c1)C(=O)O (stereo not shown) [CAD, caffeoylmalic acid]
[2]
  IC50: > 1350 µM
[1]; bovine, 6 days, pH 7.4
  IC50 Protein Glycation: 17.26 ± 1.09 ^B µg/mL

## Oc1cc(O)c2c(c1)O[C@H](c1ccc(O)c(O)c1)[C@H](O)C2 [ECA, (–)-epicatechin]
[2]
  IC50: > 689 µM
α-glucosidase
  type of α-glucosidase inhibition: mixed-type inhibitors
[1]; [3]
  IC50 Protein Glycation: 8.79 ± 0.13 ^A, B µg/mL

## O=c1c(O[C@@H]2O[C@H](CO)[C@H](O)[C@H](O)[C@H]2O)c(-c2ccc(O)c(O)c2)oc2cc(O)cc(O)c12 [HP, hyperoside]
[2]
  IC50: > 861 µM
[1]; [3]
  IC50 Protein Glycation: 14.34 ± 1.15 ^A, B µg/mL

## Oc1cc(O)c2c(c1)O[C@H](c1ccc(O)c(O)c1)[C@H](O)[C@H]2c1c(O)cc(O)c2c1O[C@H](c1ccc(O)c(O)c1)[C@H](O)C2 [PB2, procyanidin B2]
[2]
  IC50: > 346 µM
α-glucosidase
  type of interaction with α-glucosidase: noncompetitive interaction
[1]; bovine, 6 days, pH 7.4
  IC50 Protein Glycation: 2.20 ± 0.01 ^A µg/mL

## O=c1c(O[C@@H]2O[C@H](CO)[C@H](O)[C@H](O)[C@H]2O[C@@H]2OC[C@@H](O)[C@H](O)[C@H]2O)c(-c2ccc(O)c(O)c2)oc2cc(O)cc(O)c12 [QPH, quercetin 3-O-β-D-(2″-O-β-D-xylopyranosyl)galactopyranoside]
[2]
  IC50 α-Amylase: >400 µg/mL
[1]; [3]
  IC50 Protein Glycation: 15.78 ± 1.14 ^A, B µg/mL

## C[C@@H]1O[C@@H](OC[C@H]2O[C@@H](Oc3c(-c4ccc(O)c(O)c4)oc4cc(O)cc(O)c4c3=O)[C@H](O)[C@@H](O)[C@@H]2O)[C@H](O)[C@H](O)[C@H]1O [rutin]
α-glucosidase
  type of α-glucosidase inhibition: mixed type

Reference: publication PMC9610465, “The Inhibition of α-Glucosidase, α-Amylase and Protein Glycation by Phenolic Extracts of Cotoneaster bullatus, Cotoneaster zabelii, and Cotoneaster integerrimus Leaves and Fruits: Focus on Anti-Hyperglycemic Activity and Kinetic Parameters” (Molecules, 2022)
